Consider two compounds from patent publication US9566351B2, “Molecular containers and methods of making and using same” (University of Maryland, College Park, priority 2010, dated 2017).

Structures are written as SMILES. Like-named read-outs stand apart in the source and are kept apart here.

For data set [1] the following is noted: clinical evaluation; cited from earlier work.
The conditions of data set [2]: drug with Motor1; 20 mM sodium phosphate buffer (pH=7.4); phase diagram.
For data set [3] the following is noted: Swiss Webster, mouse, in vivo, iv, 3.2 mg/kg.
The conditions of data set [4]: Swiss Webster, mouse, in vivo.
A further data set has as its system SK-OV-3 cells. As to conditions: ABZ formulated in ethanol; cited from earlier work.
Data set [5] concerns OVCAR-3 (human ovarian adenocarcinoma). As to conditions: 150 mg/kg of ABZ 3 times a week for 4 weeks through IP; cited from earlier work.
The next data set has as its system glioblastoma multiforme. As to conditions: daily oral doses (50 and 150 mg/kg) of ABZ tablets mixed with 50% sesame oil; cited from earlier work.
Data set [6] has as its system SKHEP-1 (human liver adenocarcinoma) xenografts. Conditions: ABZ in sesame oil; xenografts on the flank of mice; cited from earlier work.
Data set [7] in a line: in vivo. Conditions: Swiss Webster, mouse, iv, plasma concentration.
Data set [8] in a line: in vivo. Conditions: Swiss Webster, mouse, ip, plasma concentration.
For data set [9] the following is noted: mice; repeated oral dosing of 30-40 mg/kg/day for 4-90 days; cited from earlier work.
The nature of data set [10]: Phase-solubility of pharmaceutical agents with Motor2 (1H NMR). As to conditions: drug solubilized with Motor2; 20 mM sodium phosphate buffer (pH=7.4); phase diagram.

On to `O=C(O)CCSC[C@H]1O[C@@H]2O[C@H]3[C@H](O)[C@@H](O)[C@@H](O[C@H]4[C@H](O)[C@@H](O)[C@@H](O[C@H]5[C@H](O)[C@@H](O)[C@@H](O[C@H]6[C@H](O)[C@@H](O)[C@@H](O[C@H]7[C@H](O)[C@@H](O)[C@@H](O[C@H]8[C@H](O)[C@@H](O)[C@@H](O[C@H]9[C@H](O)[C@@H](O)[C@@H](O[C@H]1[C@H](O)[C@H]2O)O[C@@H]9CSCCC(=O)O)O[C@@H]8CSCCC(=O)O)O[C@@H]7CSCCC(=O)O)O[C@@H]6CSCCC(=O)O)O[C@@H]5CSCCC(=O)O)O[C@@H]4CSCCC(=O)O)O[C@@H]3CSCCC(=O)O` [sugammadex], for which, in data set [1], the “effects on QT interval” value is on record as “no relevant effects”.
With `CCCSc1ccc2nc(NC(=O)OC)[nH]c2c1` [Albendazole], the Solubility enhancement in data set [2] is on record as 226 fold. In data set [3], the “tmax” value came to 4.98 min. In addition, the “Absolute Bioavailability (%)” value in data set [4] was found to be 78%. The “tmax” value in [4] (ip, 3.2 mg/kg) is 4.98 min. The IC50 in the data set on SK-OV-3 cells was 3.88 µM. Also, in [5], the “effect on malignant ascites” value is listed as “suppression of malignant ascites”. Besides, the mouse survival result with glioblastoma multiforme is listed as “moderate improvements in mouse survival”. For the same compound, in [6], the “daily oral dose required to see an antitumor effect” value was 300 mg/kg. For the same compound, in “in vivo [7]”, the concentration at 5 min turned out to be 1910 ng/mL and the concentration at 15 min worked out at 606 ng/mL. In “in vivo [8]”, this compound yielded a concentration at 15 min of 380 ng/mL, a concentration at 30 min of 292 ng/mL and a concentration at 2 h of 122 ng/mL. Also, the signs of toxicity result in data set [9] is recorded as “no significant signs of toxicity”. The Solubility enhancement in [10] worked out at 149 fold.
